In brackets after ≈: the same amount, converted by molar mass. Read-outs that look alike come from different tables or passages of the source.
Key:
WT E. coli = test: Minimal inhibitory concentration in wild-type E. coli; type: cell-based, Escherichia coli; details: wild-type E. coli, 37° C., 16 hours, read-out: MIC (μM) in WT E. coli
Summary of the method: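 Broth microdilution: saturated LB overnight culture diluted 1:100 twice, compound serially two-fold diluted across the plate from DMSO stock. Static incubation 16 hours at 37° C, OD600 read; MIC taken as lowest concentration inhibiting growth.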

A. baumannii 19606 = test: Minimal inhibitory concentration, A. baumannii 19606; type: cell-based; details: 16 hour minimal inhibitory concentration at 37° C., read-out: MIC (μM) A. baumannii 19606
Summary of the method: (§1)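 MIC, in µM, taken as the lowest compound concentration preventing growth by OD600 after 16 h static incubation at 37 °C. Compound was twofold serially diluted in bacteria grown overnight in LB, or TSA for S. aureus, and diluted 1:100 twice.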

K. pneumoniae 700721 = test: Minimal inhibitory concentration, K. pneumoniae 700721; type: cell-based; details: 16 hour minimal inhibitory concentration at 37° C., read-out: MIC (μM) K. pneumoniae 700721
Summary of the method: as §1

S. aureus MW2 = test: Minimal inhibitory concentration, S. aureus MW2; type: cell-based; details: 16 hour minimal inhibitory concentration at 37° C., read-out: MIC (μM) S. aureus MW2 (MRSA)
Summary of the method: as §1

E. coli 25922 = test: Minimal inhibitory concentration, E. coli 25922; type: cell-based; details: 16 hour minimal inhibitory concentration at 37° C., read-out: MIC (μM) E. coli 25922
Summary of the method: as §1

S. aureus RN4220 = test: Minimal inhibitory concentration, S. aureus RN4220; type: cell-based; details: 16 hour minimal inhibitory concentration at 37° C., read-out: MIC (μM) S. aureus RN4220
Summary of the method: as §1

E. cloacae 13047 = test: Minimal inhibitory concentration, E. cloacae 13047; type: cell-based; details: 16 hour minimal inhibitory concentration at 37° C., read-out: MIC (μM) E. cloacae 13047
Summary of the method: as §1

E. coli MC4100 = test: Minimal inhibitory concentration, E. coli MC4100; type: cell-based; details: 16 hour minimal inhibitory concentration at 37° C., read-out: MIC (μM) E. coli MC4100 ara+
Summary of the method: as §1

[1] = Acinetobacter baumannii, 19606, 16 h
[2] = Staphylococcus aureus, MRSA, 16 h
[3] = Staphylococcus aureus, RN4220, 16 h

| SMILES | MIC (WT E. coli) [µM] | MIC (A. baumannii 19606) [µM] | MIC (K. pneumoniae 700721) [µM] | MIC (S. aureus MW2) [µM] | MIC (E. coli 25922) [µM] | MIC (S. aureus RN4220) [µM] | MIC (E. cloacae 13047) [µM] | MIC (E. coli MC4100) [µM] | MIC (WT E. coli; Escherichia coli) [µM] | MIC (A. baumannii 19606; [1]) [µM] | MIC (K. pneumoniae 700721; Klebsiella pneumoniae, 700721) [µM] | MIC (S. aureus MW2; [2]) [µM] | MIC (E. coli 25922; Escherichia coli, 25922, 16 h) [µM] | MIC (S. aureus RN4220; [3]) [µM] | MIC (E. cloacae 13047; Enterobacter cloacae, 13047) [µM] | MIC (E. coli MC4100; Escherichia coli, MC4100, 16 h) [µM] |
| --- | --- | --- | --- | --- | --- | --- | --- | --- | --- | --- | --- | --- | --- | --- | --- | --- |
| COC1C(OC(N)=O)C(O)C(Oc2ccc3c(O)c(NC(=O)C4CCCC(C5CCCCC5)C4)c(=O)oc3c2C)OC1(C)C (mixture of isomers) [Compound 63] | 300 | >50 | >100 | 5 | >200 | 10 | >100 | >200 | – | – | – | – | – | – | – | – |
| CO[C@@H]1[C@@H](OC(N)=O)[C@@H](O)[C@H](Oc2ccc3c(O)c(NC(=O)c4cc(-c5ccc(F)cc5)cc(O)c4O)c(=O)oc3c2C)OC1(C)C [Compound 97] | >300 | >50 | >100 | 38 (≈ 24.9 µg/mL) | 153 (≈ 100 µg/mL) | 76 (≈ 49.7 µg/mL) | >100 | >200 | – | – | – | – | – | – | – | – |
| CO[C@@H]1[C@@H](OC(N)=O)[C@@H](O)[C@H](Oc2ccc3c(O)c(NC(=O)c4cccc(-c5ccc6ccccc6c5)c4)c(=O)oc3c2C)OC1(C)C [Compound 39] | >300 | 5 (≈ 3.27 µg/mL) | >100 | 0.1 (≈ 0.0655 µg/mL) | 153 (≈ 100 µg/mL) | 0.19 (≈ 0.124 µg/mL) | >100 | >200 | – | – | – | – | – | – | – | – |
| CO[C@@H]1[C@@H](OC(N)=O)[C@@H](O)[C@H](Oc2ccc3c(O)c(NC(=O)c4ccc5ccn(C)c5c4)c(=O)oc3c2C)OC1(C)C.Cl [Compound 71] | >300 | >50 | >100 | 41 | >200 | 81 | >100 | >200 | – | – | – | – | – | – | – | – |
| CO[C@@H]1[C@@H](OC(N)=O)[C@@H](O)[C@H](Oc2ccc3c(O)c(NC(=O)c4cccc(-c5ccccc5C(F)(F)F)c4)c(=O)oc3c2C)OC1(C)C [Compound 60] | >300 | >50 | >100 | 5 (≈ 3.36 µg/mL) | >200 | 9 (≈ 6.05 µg/mL) | >100 | >200 | – | – | – | – | – | – | – | – |
| CO[C@@H]1[C@@H](OC(N)=O)[C@@H](O)[C@H](Oc2ccc3c(O)c(NC(=O)c4cc(N)cc(-c5ccccc5)c4)c(=O)oc3c2C)OC1(C)C [Compound 89] | 59 (≈ 36.6 µg/mL) | >50 | >100 | 10 (≈ 6.2 µg/mL) | 81 (≈ 50.2 µg/mL) | 20 (≈ 12.4 µg/mL) | >100 | 59 (≈ 36.6 µg/mL) | – | – | – | – | – | – | – | – |
| CO[C@@H]1[C@@H](OC(N)=O)[C@@H](O)[C@H](Oc2ccc3c(O)c(NC(=O)c4cccc(-c5ccc(OC(F)(F)F)cc5)c4)c(=O)oc3c2C)OC1(C)C [Compound 57] | >300 | 18 (≈ 12.4 µg/mL) | >100 | 0.91 (≈ 0.627 µg/mL) | >200 | 1.45 (≈ 0.998 µg/mL) | >100 | >200 | – | – | – | – | – | – | – | – |
| COc1cc(C(=O)Nc2c(O)c3ccc(O[C@@H]4OC(C)(C)[C@H](OC)[C@@H](OC(N)=O)[C@H]4O)c(C)c3oc2=O)cc(OC)c1OC [Compound 11] | – | – | – | – | – | – | – | – | > 300 | > 50 | > 100 | > 100 | > 200 | > 100 | > 100 | > 200 |
| CO[C@@H]1[C@@H](OC(N)=O)[C@@H](O)[C@H](Oc2ccc3c(O)c(NC(=O)c4cccc(-c5ccncc5)c4)c(=O)oc3c2C)OC1(C)C [Compound 32] | – | – | – | – | – | – | – | – | > 300 | > 50 | > 100 | 41 (≈ 24.8 µg/mL) | > 200 | 83 (≈ 50.3 µg/mL) | > 100 | > 200 |
| CO[C@@H]1[C@@H](OC(N)=O)[C@@H](O)[C@H](Oc2ccc3c(O)c(NC(=O)c4ccc5ccn(C)c5c4)c(=O)oc3c2C)OC1(C)C [Compound 70] | >300 | >50 | >100 | 43 (≈ 25 µg/mL) | >200 | 86 (≈ 50 µg/mL) | >100 | >200 | – | – | – | – | – | – | – | – |
